These results are taken from patent publication US20050197343A1, “Utilization of heteroarene carboxamide as dopamine-d3 ligands for the treatment of cns diseases” (priority 2002, published 2005).

Assay [1] deals with T1, serotonin receptor 5-HT1A (Sus scrofa, UniProt A0A4X1UTF5).
T1 sequence (A0A4X1UTF5 1-422): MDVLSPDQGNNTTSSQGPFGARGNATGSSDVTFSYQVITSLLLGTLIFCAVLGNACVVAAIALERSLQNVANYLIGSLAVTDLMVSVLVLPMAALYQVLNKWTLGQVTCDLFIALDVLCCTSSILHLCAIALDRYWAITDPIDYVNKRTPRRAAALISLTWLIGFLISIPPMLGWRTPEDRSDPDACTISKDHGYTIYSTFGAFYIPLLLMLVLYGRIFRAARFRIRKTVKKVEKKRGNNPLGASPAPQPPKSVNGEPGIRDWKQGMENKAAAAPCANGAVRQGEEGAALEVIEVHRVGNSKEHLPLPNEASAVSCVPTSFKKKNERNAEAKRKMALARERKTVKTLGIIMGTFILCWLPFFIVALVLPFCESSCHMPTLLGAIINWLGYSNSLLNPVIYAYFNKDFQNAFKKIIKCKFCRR
The assay can be described thus: radio ligand binding, pig cortex membrane preparations, [3H]8-OH-DPAT.

In the next assay the target is T2, serotonin receptor 5-HT2 (Sus scrofa, UniProt P50129).
T2 construct: cortex membrane preparations of a pig; from tissue; host or cells: pig cortex
T2 sequence (P50129 whole entry): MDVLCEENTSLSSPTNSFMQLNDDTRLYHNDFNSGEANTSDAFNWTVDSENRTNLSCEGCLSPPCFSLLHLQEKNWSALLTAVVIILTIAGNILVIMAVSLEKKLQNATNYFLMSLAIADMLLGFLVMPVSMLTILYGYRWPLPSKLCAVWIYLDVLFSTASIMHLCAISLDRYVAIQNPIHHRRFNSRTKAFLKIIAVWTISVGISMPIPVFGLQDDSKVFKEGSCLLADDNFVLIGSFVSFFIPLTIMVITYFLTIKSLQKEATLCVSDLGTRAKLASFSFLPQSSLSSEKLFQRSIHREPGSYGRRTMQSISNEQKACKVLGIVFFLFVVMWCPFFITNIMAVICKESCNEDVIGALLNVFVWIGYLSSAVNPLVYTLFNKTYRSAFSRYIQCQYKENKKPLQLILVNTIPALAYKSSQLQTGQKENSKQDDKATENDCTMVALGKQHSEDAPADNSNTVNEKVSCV
The assay can be described thus: radio ligand binding, pig cortex membrane preparations, [3H]Ketanserin with 10 μM Prazosin. The following applies: p5-HT2; simultaneous incubation with 10 μM of Prazosin.

Assay [2] deals with adrenergic receptor subtype α1. The assay is described as follows: radio ligand binding, pig cortex membranes, highly affine binding site on labelling with [3H]Ketanserin. Particulars: read-out: Ki values α1 (footnote c); pα1; derived from the highly affine binding site on labelling with [3H]Ketanserin.
In the next assay the target is α1 receptors. The assay is described as follows: competitive experiment with the α1 selective radio ligand [3H]Prazosin. Particulars: read-out: Ki values α1 (footnote d); pα1; competitive experiment with [3H]Prazosin.
In a further assay the target is T3, human D2short receptor (Homo sapiens, UniProt P14416).
T3 construct: expressed in transfected cells; host or cells: CHO cells (membrane homogenates)
T3 sequence (P14416 1-414 isoform P14416-2): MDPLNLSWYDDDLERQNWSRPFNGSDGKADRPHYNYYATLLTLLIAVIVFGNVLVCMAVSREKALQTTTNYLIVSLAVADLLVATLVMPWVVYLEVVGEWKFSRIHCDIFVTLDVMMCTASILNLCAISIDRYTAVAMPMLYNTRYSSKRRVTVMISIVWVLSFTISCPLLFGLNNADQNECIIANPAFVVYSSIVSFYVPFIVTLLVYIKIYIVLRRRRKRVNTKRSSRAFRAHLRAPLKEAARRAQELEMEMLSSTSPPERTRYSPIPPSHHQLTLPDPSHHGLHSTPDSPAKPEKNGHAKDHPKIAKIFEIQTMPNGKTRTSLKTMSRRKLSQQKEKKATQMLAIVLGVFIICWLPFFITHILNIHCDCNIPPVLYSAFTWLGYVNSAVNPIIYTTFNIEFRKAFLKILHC
The assay is described as follows: radio ligand binding assay, CHO cell membrane homogenates, [3H]Spiperon, D2short. Particulars: hD2short; average of 2-9 experiments in triplicate. As for the experimental part:
(§1) The biological activities of the compounds of the invention were determined in radio ligand binding assays.

The target in assay [3] is T4, D3 receptor (Homo sapiens, UniProt P35462). The assay is described as follows: radio ligand binding assay, CHO cell membrane homogenates, [3H]Spiperon, D3. On the set-up: expressed in transfected cells; host or cells: CHO cells (membrane homogenates). Particulars: for Ki: hD3, average of 2-9 experiments in triplicate, read-out: Ki-values D3; for D3 selectivity D2long/D3 / D3 selectivity D2short/D3 / D3 selectivity D4.4/D3: ratio of Ki values. Here is the method: as §1
T4 sequence (P35462 whole entry): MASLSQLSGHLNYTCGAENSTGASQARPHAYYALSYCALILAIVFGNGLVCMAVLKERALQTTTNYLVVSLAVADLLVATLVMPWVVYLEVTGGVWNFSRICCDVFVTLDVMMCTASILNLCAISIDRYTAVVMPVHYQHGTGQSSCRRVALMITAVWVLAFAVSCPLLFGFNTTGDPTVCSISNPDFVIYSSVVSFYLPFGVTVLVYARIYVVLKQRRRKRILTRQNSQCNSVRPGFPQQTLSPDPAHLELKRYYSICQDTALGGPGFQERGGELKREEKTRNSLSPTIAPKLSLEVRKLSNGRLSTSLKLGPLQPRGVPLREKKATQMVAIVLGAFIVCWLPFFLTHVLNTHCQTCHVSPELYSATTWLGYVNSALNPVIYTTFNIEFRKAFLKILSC

For another assay, the target named is T5, human D2long receptor (Homo sapiens, UniProt P14416).
T5 construct: expressed in transfected cells; host or cells: CHO cells (membrane homogenates)
T5 sequence (P14416 whole entry): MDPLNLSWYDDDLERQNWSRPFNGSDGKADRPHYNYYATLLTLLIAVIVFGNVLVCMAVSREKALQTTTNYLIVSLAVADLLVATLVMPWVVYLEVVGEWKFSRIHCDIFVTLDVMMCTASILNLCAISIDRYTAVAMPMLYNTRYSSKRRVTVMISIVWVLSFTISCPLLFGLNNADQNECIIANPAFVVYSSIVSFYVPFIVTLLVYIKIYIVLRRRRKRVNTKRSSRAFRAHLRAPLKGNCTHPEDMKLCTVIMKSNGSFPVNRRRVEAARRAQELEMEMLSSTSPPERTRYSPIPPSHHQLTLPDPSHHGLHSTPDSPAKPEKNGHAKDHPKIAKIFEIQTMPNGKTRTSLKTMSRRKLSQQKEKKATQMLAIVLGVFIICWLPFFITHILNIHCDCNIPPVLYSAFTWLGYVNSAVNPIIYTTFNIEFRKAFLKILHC
The assay is described as follows: radio ligand binding assay, CHO cell membrane homogenates, [3H]Spiperon, D2long. Particulars: hD2long; average of 2-9 experiments in triplicate. Here is the method: as §1

The target of another assay is T6, human D4.4 receptor (Homo sapiens, UniProt P21917).
T6 construct: expressed in transfected cells; host or cells: CHO cells (membrane homogenates)
T6 sequence (P21917 1-419): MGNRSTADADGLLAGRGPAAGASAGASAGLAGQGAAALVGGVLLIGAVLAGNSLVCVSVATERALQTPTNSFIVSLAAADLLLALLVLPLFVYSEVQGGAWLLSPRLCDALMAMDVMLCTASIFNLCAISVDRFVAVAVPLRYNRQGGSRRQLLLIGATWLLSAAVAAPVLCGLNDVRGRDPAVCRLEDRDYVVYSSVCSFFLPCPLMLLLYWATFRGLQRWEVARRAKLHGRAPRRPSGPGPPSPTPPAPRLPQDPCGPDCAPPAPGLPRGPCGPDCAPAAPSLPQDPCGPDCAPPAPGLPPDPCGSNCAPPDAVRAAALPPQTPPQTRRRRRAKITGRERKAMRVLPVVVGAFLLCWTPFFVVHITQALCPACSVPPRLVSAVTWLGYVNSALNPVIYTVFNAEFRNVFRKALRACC
The assay is described as follows: radio ligand binding assay, CHO cell membrane homogenates, [3H]Spiperon, D4.4. Particulars: for Ki: hD4.4, average of 2-9 experiments in triplicate. Here is the method:
as §1

A further assay has as its target T7, D1 receptor (Sus scrofa, UniProt P50130).
T7 construct: native membrane homogenates obtained from the striatum of a pig; from tissue; host or cells: pig striatum
The assay is described as follows: radio ligand binding assay, D1 receptor, pig striatum membrane homogenates, [3H]SCH 23390. Particulars: pD1; average of 2-9 experiments in triplicate. Here is the method:
as §1

Assay [4] addresses T4, D3 receptor. The assay is described as follows: mitogenesis assay (intrinsic activity). The class given is cell-based. The source says: D3 ligands may show agonistic, antagonistic or partial-agonistic activity on the D3 receptor. The respective intrinsic activities of the compounds of the invention may be measured in mitogenesis assays as described in literature (Hübner, H. et al. J. Med. Chem. 2000, 43, 4563-4569, and Löber, S. Bioorg. Med. Chem. Lett. 2002, 12.17, 2377-2380). Depending on the pathophysiology of the underlying disease, a stronger agonistic, stronger antagonistic or partial-agonistic activity may be desirable. The present invention therefore permits an excellent fine-tuning of the desired activity.
Tests to determine the intrinsic activity of the compounds of the examples were carried out in a mitogenesis assay as described in literature (Hübner, H. et al. J. Med. Chem. 2000, 43, 4563-4569; Löber, S. Bioorg. Med. Chem. Lett. 2002, 12.17, 2377-2380).

The mark [5] stands for this setting: read-out: Ki values 5-HT1A, p5-HT1A, [3H]8-OH-DPAT, average of 2 to 6 experiments.

Like-named read-outs stand apart in the source and are kept apart here.

T7 sequence (P50130 whole entry): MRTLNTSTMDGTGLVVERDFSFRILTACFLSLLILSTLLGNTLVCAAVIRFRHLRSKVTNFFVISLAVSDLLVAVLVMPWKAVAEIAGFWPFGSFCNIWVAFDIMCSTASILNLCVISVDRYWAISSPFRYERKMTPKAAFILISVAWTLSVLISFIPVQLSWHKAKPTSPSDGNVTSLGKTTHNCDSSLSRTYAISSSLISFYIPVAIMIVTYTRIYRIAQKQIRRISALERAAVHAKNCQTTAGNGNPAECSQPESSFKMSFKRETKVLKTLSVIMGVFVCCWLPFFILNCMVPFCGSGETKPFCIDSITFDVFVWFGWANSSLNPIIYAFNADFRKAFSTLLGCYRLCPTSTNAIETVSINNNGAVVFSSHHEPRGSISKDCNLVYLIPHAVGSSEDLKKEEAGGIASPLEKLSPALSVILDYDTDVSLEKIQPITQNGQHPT

Broadly, the Ki is the dissociation constant of the complex between target and ligand, obtained from inhibition or displacement. With `COc1ccccc1N1CCN(CCCCNC(=O)c2cc3ccccc3[nH]2)CC1` [Example 24, N-4-(4-(2-methoxyphenyl)piperazine-1-yl)butyl-2-indolylcarbamide], the Ki in assay [1] is 32 nM; on serotonin receptor 5-HT2 it was 420 nM; in [2], 11 nM; on α1 receptors, 7.3 nM.

For the compound `COc1ccccc1N1CCN(CCCCNC(=O)c2cc3cc(Br)ccc3o2)CC1` [Example 5, N-4-(4-(2-methoxyphenyl)piperazine-1-yl)butyl-5-brom-2-benzo[b]furanylcarbamide], the Ki in [1] (setting [5]) worked out at 68 nM; on serotonin receptor 5-HT2, 140 nM; on human D2short receptor, 61 nM; at D3 receptor [3], 0.69 nM; on human D2long receptor it was 96 nM; at α1 receptors it was 5.3 nM. Also, the Ki at human D4.4 receptor stood at 17 nM; on D1 receptor it was 590 nM. Moreover, on D3 receptor [3], the “D3 selectivity D2long/D3” value amounted to 140. Moreover, on D3 receptor [3], the “D3 selectivity D2short/D3” value was determined as 88. Further, the “D3 selectivity D4.4/D3” value at D3 receptor [3] is on record as 25.

`COc1ccccc1N1CCN(CCCCNC(=O)c2cc3ccccc3o2)CC1` [Example 3, N-4-(4-(2-methoxyphenyl)piperazine-1-yl)butyl-2-benzo[b]furanylcarbarnide]: the inhibitory constant (Ki) came out at 14 nM in assay [2], 3.3 nM on α1 receptors and 30 nM on human D4.4 receptor.

Consider `COc1ccccc1N1CCN(CCCCNC(=O)c2cc3cc(C#N)ccc3o2)CC1` [Example 7, N-4-(4-(2-methoxyphenyl)piperazine-1-yl)butyl-5-cyano-2-benzo[b]furanylcarbamide], for which the Ki is 37 nM in assay [1]; 390 nM at serotonin receptor 5-HT2; 89 nM on human D2short receptor; 4.2 nM at D3 receptor [3]; 8.2 nM in [2]; 130 nM at human D2long receptor. Further, the figures for the Ki on α1 receptors and at human D4.4 receptor were 11 nM and 57 nM, respectively.

The term EC50 denotes the concentration that produces a half-maximal response. Regarding `COc1ccccc1N1CCN(CCCCNC(=O)c2cc3ccccc3s2)CC1` [Example 1, N-4-(4-(2-methoxyphenyl)piperazine-1-yl)butyl-2-benzo[b]thiophenylcarbamide], the EC50 on D3 receptor [4] (curve calculation of the concentration-activity test) is 0.38 nM. In addition, the “partial agonistic activity, % of the maximum receptor stimulation” value on D3 receptor [4] (maximum triggered by the full agonist Quinpirol as reference) is 49%. Besides, the Ki at D3 receptor [3] is 0.23 to 0.57 nM; at α1 receptors, 6.4 nM.

As to `COc1ccccc1N1CCN(CCCCNC(=O)c2cc3cc(C#N)ccc3[nH]2)CC1` [Example 11, N-4-(4-(2-methoxyphenyl)piperazine-1-yl)butyl-5-cyan-2-indolylcarbamide], the Ki in [1] was 83 nM; at serotonin receptor 5-HT2 it was 440 nM; at D3 receptor [3], 0.23 to 0.57 nM; in assay [2], 24 nM; on α1 receptors, 5.9 nM.

Take `COc1ccccc1N1CCN(CCCCNC(=O)c2cc3cc(Br)ccc3[nH]2)CC1` [Example 12, N-4-(4-(2-methoxyphenyl)piperazine-1-yl)butyl-5-bromo-2-indolylcarbamide]: the Ki in assay [1] is 440 nM; on serotonin receptor 5-HT2, 280 nM; on D3 receptor [3], 0.23 to 0.57 nM; on α1 receptors it was 6.4 nM.

Consider “N-4-(4-(2-methoxyphenyl)piperazine-1 -yl)butyl-2-ferrocenylcarbamide [Example 16]”, for which the Ki is 0.6 nM in assay [1] (setting [5]), 500 nM at serotonin receptor 5-HT2 and 30 nM at α1 receptors. Moreover, the “D4 affinity (in words)” value on human D4.4 receptor is “high D4 affinity”.

Consider `O=C(NCCCCN1CCN(c2cccc(Cl)c2Cl)CC1)c1cc2ccccc2[te]1` [Example 9, N-4-(4-(2,3-dichlorophenyl)piperazine-1-yl)butyl-2-benzo[b]tellurophenylcarbamide], for which the Ki in assay [1] (setting [5]) is 130 nM; at serotonin receptor 5-HT2, 730 nM; on human D2short receptor it was 48 nM; at D3 receptor [3] it was 0.55 nM; on human D2long receptor, 91 nM; at α1 receptors, 100 nM. The Ki on human D4.4 receptor amounted to 150 nM; on D1 receptor, 1400 nM. In addition, the “D3 selectivity D2long/D3” value at D3 receptor [3] was 170. The “D3 selectivity D2short/D3” value at D3 receptor [3] came to 87. The “D3 selectivity D4.4/D3” value at D3 receptor [3] is given as 270.

Consider `O=C(NCCCCN1CCN(c2cccc(Cl)c2Cl)CC1)c1cc2cc(Br)ccc2o1` [Example 6, N-4-(4-(2,3-dichlorophenyl)piperazine-1-yl)butyl-5-bromo-2-benzo[b]furanylcarbarnide], for which the Ki in assay [1] (setting [5]) came out at 2500 nM; at serotonin receptor 5-HT2, 540 nM; on human D2short receptor, 4800 nM; at D3 receptor [3], 3.4 nM; on human D2long receptor, 10000 nM; at α1 receptors, 1300 nM. The Ki on human D4.4 receptor was 3100 nM; at D1 receptor it was 2100 nM. Also, on D3 receptor [3], the “D3 affinity (in words)” value is given as “subnanomolar affinity”. In addition, the “D3 selectivity D2long/D3” value at D3 receptor [3] was found to be 2900. Also, at D3 receptor [3], the “D3 selectivity D2short/D3” value stood at 1400. Further, on D3 receptor [3], the “D3 selectivity D4.4/D3” value amounted to 910.

With `N#Cc1ccc2cc(C(=O)NCCCCN3CCN(c4cccc(Cl)c4Cl)CC3)sc2c1` [Example 21, N-4-(4-(2,3-dichlorophenyl)piperazine-1-yl)butyl-6-cyano-2-benzo[b]thiophenylcarbamide], the Ki in [1] was 110 nM; on serotonin receptor 5-HT2, 290 nM; on D3 receptor [3], 0.23 to 0.57 nM; at α1 receptors, 45 nM.

For “N-4-(4-(2, 3-dichlorophenyl)piperazine-1 -yl)butyl-2-ferrocenylcarbamide [Example 17]”, the Ki in [1] (setting [5]) turned out to be 27 nM; at serotonin receptor 5-HT2 it was 250 nM; at D3 receptor [3], 0.47 nM; on α1 receptors it was 73 nM; on human D4.4 receptor, 0.63 nM. Further, the “D4 affinity (in words)” value at human D4.4 receptor is listed as “high D4 affinity”.

As to `COc1ccccc1N1CCN(CCCCNC(=O)c2cc3ccc(C#N)cc3[nH]2)CC1` [Example 13, N-4-(4-(2-methoxyphenyl)piperazine-1-yl)butyl-6-cyan-2-indolylcarbamide], the Ki in assay [1] is 47 nM; on serotonin receptor 5-HT2 it was 220 nM; on D3 receptor [3] it was 0.23 to 0.57 nM; at α1 receptors, 4.3 nM.
